# Patent US6806230B1, “Pyrimidine derivatives and herbicides containing them” (Kumiai Chemical Industry Co., Ltd., priority 1999, dated 2004)
# Legend:
# Type in all cases: in vivo
# [1] = system: monochoria (Mo); test: Test Example 1: herbicidal effects by flooded paddy field treatment; design: herbicidal effects, Mo (monochoria):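 0-5 growth inhibition grade; 5 = over 90%; 4 = 70-90%; 3 = 50-70%; 2 = 30-50%; 1 = 10-30%; 0 = under 10%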; conditions: for Herbicidal effect index, Mo: dose 100 gai/10a, examined on 21st day after treatment, index 0-5 per Table 44; for herbicidal effects, Mo (monochoria): dose 100 g active ingredient per 10 ares, examined on the 21st day after treatment, standards of Table 44;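 on Herbicidal effect index, Mo: 0-5 growth inhibition grade; 5 = over 90%; 4 = 70-90%; 3 = 50-70%; 2 = 30-50%; 1 = 10-30%; 0 = under 10%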
# Procedure, shortened: (§1)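 Seeds were sown in puddled paddy soil in pots and flooded to 3 cm. The next day a water-diluted wettable powder was dripped onto the water surface at 100 g active ingredient per 10 ares. Plants grew in a greenhouse, and herbicidal effect was scored on a rating scale 21 days after treatment.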
# [2] = system: green foxtail (Se); test: Test Example 2: herbicidal effects by upland soil treatment; conditions: dose 100 g active ingredient per 10 ares, examined on the 21st day after treatment, standards of Table 44;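 further: 0-5 growth inhibition grade; 5 = over 90%; 4 = 70-90%; 3 = 50-70%; 2 = 30-50%; 1 = 10-30%; 0 = under 10%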
# Procedure, shortened: (§2)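 Pre-emergence test: barnyard grass and green foxtail sown in upland soil, then soil surface sprayed with wettable-powder formulation at 100 g active ingredient per 10 ares (100 l per 10 ares). Grown in greenhouse; herbicidal effect scored on a rating scale 21 days after treatment.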
# [3] = system: wheat (Tr); test: Test Example 5: selectivity for a crop plant by soil treatment in upland field; design: scale not given here; conditions: dose 25 gai/10a, 21st day after treatment, index per Table 44
# Method: (§3) In a 80 cm^2 plastic pot, upland soil was filled, and seeds of barnyard grass (Ec), green foxtail (Se), soybean (G1), wheat (Tr) and corn (Ze) were sown and covered with soil. A wettable powder prepared in accordance with Formulation Example 1 was diluted with water and uniformly applied to the soil surface by a small size spray at a rate of 100 l per 10 ares so that the dose of the active ingredient would be 25 g per 10 ares. Thereafter, cultivation was carried out in a green house, and on the 21st day after the treatment, the herbicidal effects were examined in accordance with the standards of Table 44.
# [4] = system: corn (Ze); test: as above; design: scale not given here; conditions: dose 25 gai/10a, 21st day after treatment, index per Table 44
# Method: as §3
# [5] = system: barnyard grass (Ec); test: as above; design: scale not given here; conditions: dose 25 gai/10a, 21st day after treatment, index per Table 44
# Method: as §3
# [6] = system: barnyard grass (Eo); test: Test Example 1: herbicidal effects by flooded paddy field treatment; design: herbicidal effects, Eo (barnyard grass):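 0-5 growth inhibition grade; 5 = over 90%; 4 = 70-90%; 3 = 50-70%; 2 = 30-50%; 1 = 10-30%; 0 = under 10%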; conditions: for Herbicidal effect index, Eo: dose 100 gai/10a, examined on 21st day after treatment, index 0-5 per Table 44; for herbicidal effects, Eo (barnyard grass): dose 100 g active ingredient per 10 ares, examined on the 21st day after treatment, standards of Table 44;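 on Herbicidal effect index, Eo: 0-5 growth inhibition grade; 5 = over 90%; 4 = 70-90%; 3 = 50-70%; 2 = 30-50%; 1 = 10-30%; 0 = under 10%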
# Procedure, shortened: as §1
# [7] = system: barnyard grass (Ec); test: Test Example 2: herbicidal effects by upland soil treatment; design: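 0-5 growth inhibition grade; 5 = over 90%; 4 = 70-90%; 3 = 50-70%; 2 = 30-50%; 1 = 10-30%; 0 = under 10%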; conditions: dose 100 g active ingredient per 10 ares, examined on the 21st day after treatment, standards of Table 44
# Procedure, shortened: as §2
# [8] = system: rice (Or); test: Test Example 4: selectivity for a crop plant by flooded paddy field treatment; design: scale not given here; conditions: rice transplanted at second leaf stage; for Or (effect on crop plant rice, index): dose 25 g active ingredient per 10 ares, examined on the 21st day after treatment; for Or (herbicidal effect index on crop): dose 25 gai/10a, 21st day after treatment, index per Table 44
# Procedure, shortened: (§4)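 Paddy soil in pots was puddled, weed seeds were sown, second-leaf-stage rice was transplanted, and the pots were flooded to 3 cm. The next day a water-diluted wettable powder was dropped onto the water surface at 25 g active ingredient per 10 ares. Herbicidal effect was scored on a rating scale 21 days after treatment in a greenhouse.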
# [9] = system: barnyard grass (Eo); test: as above; design: scale not given here; conditions: for Eo (herbicidal effects, index): dose 25 g active ingredient per 10 ares, examined on the 21st day after treatment; for Eo (herbicidal effect index): barnyard grass, dose 25 gai/10a, 21st day after treatment, index per Table 44
# Procedure, shortened: as §4
# [10] = system: monochoria (Mo); test: as above; design: scale not given here; conditions: for Mo (herbicidal effects, index): dose 25 g active ingredient per 10 ares, examined on the 21st day after treatment; for Mo (herbicidal effect index): monochoria, dose 25 gai/10a, 21st day after treatment, index per Table 44
# Procedure, shortened: as §4
# [11] = system: soybean (G1); test: Test Example 5: selectivity for a crop plant by soil treatment in upland field; design: scale not given here; conditions: dose 25 gai/10a, 21st day after treatment, index per Table 44
# Method: as §3
# [12] = system: barnyard grass (Ec); test: Test Example 3: herbicidal effects by foliage treatment in upland field; design: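 0-5 growth inhibition grade; 5 = over 90%; 4 = 70-90%; 3 = 50-70%; 2 = 30-50%; 1 = 10-30%; 0 = under 10%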; conditions: dose 100 g active ingredient per 10 ares, examined on the 14th day after treatment
# Procedure, shortened: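 Barnyard grass and green foxtail were grown in upland soil for 2 weeks in a greenhouse. A water-diluted wettable powder was sprayed over the foliage at 100 l per 10 ares, giving 100 g active ingredient per 10 ares. Herbicidal effect was scored on day 14 after treatment.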
"Or (effect on crop plant rice, index) [8]",SMILES,"Herbicidal effect index, Mo [1]","herbicidal effects, Se (green foxtail) [2]",Tr (herbicidal effect index on crop) [3],Ze (herbicidal effect index on crop) [4],Ec (herbicidal effect index) [5],"Herbicidal effect index, Eo [6]","herbicidal effects, Ec (barnyard grass) [7]","Eo (herbicidal effects, index) [9]","Mo (herbicidal effects, index) [10]",Gl (herbicidal effect index on crop) [11],"herbicidal effects, Mo (monochoria) [1]",Or (herbicidal effect index on crop) [8],Eo (herbicidal effect index) [9],Mo (herbicidal effect index) [10],"Ec (herbicidal effects, index) [12]","herbicidal effects, Eo (barnyard grass) [6]"
–,CC(C(=O)N(C)C(c1cncnc1C(F)(F)F)C(C)C)c1ccc(Cl)cc1 (mixture of isomers) [Compound 1-71],5,5,3,0,5,5,5,–,–,–,–,–,–,–,–,–
–,CC(C)C(c1cncnc1C(F)(F)Cl)N(C)C(=O)Cc1ccccc1 (racemic) [Compound 1-15],5,5,1,1,5,5,5,–,–,–,–,–,–,–,–,–
1,Cc1ccc(CC(=O)N(C)C(c2cncnc2C(F)(F)F)C(C)C)cc1 (racemic) [Compound 1-23],5,5,2,1,5,5,5,5,5,–,–,–,–,–,–,–
1,CCC(c1cncnc1C(F)(F)F)N(C)C(=O)Cc1ccc(F)cc1 (racemic) [Compound 1-33],5,5,2,1,4,5,5,5,5,0,–,–,–,–,–,–
0,CC(C)C(c1cncnc1C(F)(F)F)N(C)C(=O)Cc1ccc(Cl)c(Cl)c1 (racemic) [Compound 1-45],5,5,2,0,4,5,5,5,5,0,–,–,–,–,–,–
0,CCCN(C(=O)Cc1ccc(Cl)cc1)C(c1cncnc1C(F)(F)F)C(C)C (racemic) [Compound 1-49],5,4,0,3,5,5,5,5,5,1,–,–,–,–,–,–
1,Cc1cccc(CC(=O)N(C)C(c2cncnc2C(F)(F)F)C(C)C)c1 (racemic) [Compound 1-51],5,5,1,0,5,5,5,5,5,0,–,–,–,–,–,–
–,CC(C)C(c1cncnc1C(F)(F)F)N(C)C(=O)COc1ccccc1 (racemic) [Compound 1-64],5,5,3,0,4,5,5,–,–,2,–,–,–,–,–,–
–,CC(C)C(c1cncnc1C(F)(F)F)N(C)C(=O)COc1ccc(Cl)cc1 (racemic) [Compound 1-65],5,5,0,0,5,5,5,–,–,0,–,–,–,–,–,–
–,CC(C)c1ccc(CC(=O)N(C)C(c2cncnc2C(F)(F)F)C(C)C)cc1 (racemic) [Compound 1-68],5,5,2,2,4,5,5,–,–,0,–,–,–,–,–,–
–,CC(C)C(c1cncnc1C(F)(F)F)N(C)C(=O)Cc1cccc(Br)c1 (racemic) [Compound 1-70],5,5,4,1,5,5,5,–,–,1,–,–,–,–,–,–
–,CC(C)C(c1cncnc1C(F)(F)F)N(C)C(=O)Cc1ccc(C#N)cc1 (racemic) [Compound 1-75],5,5,3,2,4,5,5,–,–,0,–,–,–,–,–,–
0,COCc1ccc(CC(=O)N(C)C(c2cncnc2C(F)(F)F)C(C)C)cc1 (racemic) [Compound 1-76],5,5,2,2,4,5,5,5,5,0,–,–,–,–,–,–
–,CC(C)C(c1cncnc1C(F)(F)F)N(C)C(=O)CCc1ccccc1 (racemic) [Compound 1-77],–,5,3,2,5,–,5,–,–,1,–,–,–,–,–,–
–,CC(C)C(c1cncnc1C(F)(F)F)N(C(=O)Cc1ccccc1)C1CC1 (racemic) [Compound 1-80],5,5,5,1,5,5,5,–,–,0,–,–,–,–,–,–
0,CC#Cc1ccc(CC(=O)N(C)C(c2cncnc2C(F)(F)F)C(C)C)cc1 (racemic) [Compound 1-84],5,–,1,0,4,5,–,5,5,0,–,–,–,–,–,–
–,CSc1ncncc1C(C(C)C)N(C)C(=O)Cc1ccc(C)cc1 (racemic) [Compound 1-153],–,5,–,–,–,–,5,–,–,–,5,1,5,5,4,5
–,C#CCN(C(=O)Cc1ccc(F)cc1)C(c1cncnc1C(F)(F)F)C(C)C (racemic) [Compound 1-172],–,5,–,–,–,–,5,–,–,–,5,1,5,5,5,5
